One series can be described thus: Oral bioavailability in dog at 4.2 mg/kg. In kind it is ADME, organism-based, Canis lupus familiaris. The settings on record: in vivo.
As usually defined, the bioavailability is the share of a dose that reaches the circulation, judged against a reference dose that is usually intravenous. A lower bioavailability goes with poor availability. For the molecule `O=C1c2ncc3c(c(CN4CCCCC4)cn3Cc3ccc(F)cc3)c2CCN1O`, the bioavailability was found to be 33%.

A short description of another series: Half life in dog at 1 mg/kg, iv and 4.2 mg/kg, po. The note with it: in vivo. The series is classed as ADME, organism-based, Canis lupus familiaris.
For orientation: half-life means the time in which the quantity being followed falls by half. High values mean slow loss, low ones fast loss. Consider `O=C1c2ncc3c(c(CN4CCCCC4)cn3Cc3ccc(F)cc3)c2CCN1O`, for which the half-life was 2.6 h.

The next series is described as follows: Octanol-buffer distribution coefficient, log D of the compound at pH 7.4. The series is classed as physicochemical.
Details: not given
A word on the logD: it is the decadic logarithm of the distribution of all forms, ionised or not, between an organic phase and buffer at a given pH. Read a high logD as higher lipophilicity. Molecule `CN(O)C(=O)c1cc2c(CN3CCC[C@H]3C(N)=O)cn(Cc3ccc(F)cc3)c2cn1` displayed a logD of 1.7.
For `O=C1c2ncc3c(ccn3Cc3ccc(F)cc3)c2CCN1O`, the logD turned out to be 1.39.
Still for that read-out and setting: next, `O=C1c2ncc3c(ccn3Cc3ccc(F)cn3)c2CCN1O`: 0.6; `O=C1c2ncc3c(ccn3Cc3ncc(F)cc3F)c2CCN1O`: 0.77; `N#Cc1cc(F)ccc1Cn1ccc2c3c(ncc21)C(=O)N(O)CC3`: 1.15.
`N#Cc1c(Cn2ccc3c4c(ncc32)C(=O)N(O)CC4)ccc(F)c1Cl` gave a logD of 1.7.
Molecule `CN(C)Cc1cn(Cc2ccc(F)cc2)c2cnc3c(c12)CCN(O)C3=O` came in with a logD of 0.89.
Molecule `CN(CCO)Cc1cn(Cc2ccc(F)cc2)c2cnc3c(c12)CCN(O)C3=O` displayed a logD of 0.67.
The same measure, in the same setting: next, `O=C1c2ncc3c(c(CN4CCCCC4)cn3Cc3ccc(F)cc3)c2CCN1O`: 1.15; `COCCN(C)Cc1cn(Cc2ccc(F)cc2)c2cnc3c(c12)CCN(O)C3=O`: 1.46.
`CN(Cc1cn(Cc2ccc(F)cc2)c2cnc3c(c12)CCN(O)C3=O)CC1CC1` showed a log distribution coefficient (logD) of 1.52.
For the molecule `O=C1c2ncc3c(c(CN4CCC(F)(F)C4)cn3Cc3ccc(F)cc3)c2CCN1O`, the logD amounted to 2.02.
`O=C1c2ncc3c(c(COCCc4ccccn4)cn3Cc3ccc(F)cc3)c2CCN1O` registered a logD of 1.56.
Still for that read-out and setting: next, `O=C1c2ncc3c(c(COCc4ccccn4)cn3Cc3ccc(F)cc3)c2CCN1O`: 1.63; `O=C1c2ncc3c(c(COCC4CCOCC4)cn3Cc3ccc(F)cc3)c2CCN1O`: 1.83; `CC(C)OCCOCc1cn(Cc2ccc(F)cc2)c2cnc3c(c12)CCN(O)C3=O`: 2.12.
The same measure, in the same setting: next, `O=C1c2ncc3c(c(COCCCc4ccccn4)cn3Cc3ccc(F)cc3)c2CCN1O`: 2.15.
As for `O=C1c2ncc3c(c(COCc4ccccc4F)cn3Cc3ccc(F)cc3)c2CCN1O`, the logD was 2.47.
Same read-out and setting: next, `O=C(O)CCc1cn(Cc2ccc(F)cc2)c2cnc3c(c12)CCN(O)C3=O`: -0.74; `O=C1c2ncc3c(c(CCCN4CCOCC4)cn3Cc3ccc(F)cc3)c2CCN1O`: 0.1.
Take `CC(=O)N(C)CCCc1cn(Cc2ccc(F)cc2)c2cnc3c(c12)CCN(O)C3=O`: the logD amounted to 0.76.
`CC(C)(O)CCc1cn(Cc2ccc(F)cc2)c2cnc3c(c12)CCN(O)C3=O` displayed a logD of 1.67.
Still for that read-out and setting: next, `O=C1c2ncc3c(c(CCCOC4CCOCC4)cn3Cc3ccc(F)cc3)c2CCN1O`: 2.1.
Still for that read-out and setting: next, `O=C1c2ncc3c(c(CCC(F)(F)F)cn3Cc3ccc(F)cc3)c2CCN1O`: 2.32; `O=C1c2ncc3c(c(S(=O)(=O)N4CCOCC4)cn3Cc3ccc(F)cc3)c2CCN1O`: 0.18; `COCCN(C)S(=O)(=O)c1cn(Cc2ccc(F)cc2)c2cnc3c(c12)CCN(O)C3=O`: 1.14.
The same measure, in the same setting: next, `CN(C)S(=O)(=O)c1cn(Cc2ccc(F)cc2)c2cnc3c(c12)CCN(O)C3=O`: 1.29; `O=C1c2ncc3c(c(S(=O)(=O)N4CCCC4)cn3Cc3ccc(F)cc3)c2CCN1O`: 1.63.
Molecule `CC1CCN(S(=O)(=O)c2cn(Cc3ccc(F)cc3)c3cnc4c(c23)CCN(O)C4=O)CC1` gave a logD of 2.14.
Turning to `CN(O)C(=O)c1cc2ccn(Cc3ccc(F)cc3)c2cn1`, the logD came to 2.04.

The nature of the next series: Volume of distribution at steady state in dog at 1 mg/kg, iv and 4.2 mg/kg, po. In kind it is ADME, organism-based, Canis lupus familiaris. The settings on record: in vivo, read-out: Vdss.
Turning to `O=C1c2ncc3c(c(CN4CCCCC4)cn3Cc3ccc(F)cc3)c2CCN1O`, the Vd amounted to 6.7 L/kg.

The next series in a line: Clearance in dog. The series is classed as ADME, organism-based, Canis lupus familiaris. The settings on record: in vivo.
Molecule `CN(O)C(=O)c1cc2c(CN3CCC[C@H]3C(N)=O)cn(Cc3ccc(F)cc3)c2cn1` showed a clearance of 15 mL/min/kg.

The next series in a line: Clearance in dog at 1 mg/kg, iv and 4.2 mg/kg, po. The series is classed as ADME, organism-based, Canis lupus familiaris. The note with it: in vivo.
Consider `O=C1c2ncc3c(c(CN4CCCCC4)cn3Cc3ccc(F)cc3)c2CCN1O`, for which the clearance is 30 mL/min/kg.

The record behind these values is ChEMBL document CHEMBL1772993, “Design and synthesis of novel N-hydroxy-dihydronaphthyridinones as potent and orally bioavailable HIV-1 integrase inhibitors” (J Med Chem, 2011).
